Columns and labels:
Assay in all cases: relative viability (nuclei count vs DMSO), 5 days (fraction); higher = more cells survive
[1] = test system: LXF-289
Method in brief: (§1)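 One day after seeding in 1536-well plates, lung cancer cell lines were dosed by pin tool. Dosing was either single-drug or a fixed anchor-drug dose plus five library-drug doses (not always all listed) in √10 steps. After 5 days, nuclei were stained in one fix-and-stain step and counted on 4× images, and relative viability is the nuclei count of treated wells over that of vehicle wells, given as the median of duplicate plates.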

[2] = test system: NCI-H1395
Method in brief: as §1

[3] = test system: NCI-H1563
Method in brief: as §1

[4] = test system: NCI-H1993
Method in brief: as §1

[5] = test system: NCI-H2087
Method in brief: as §1

[6] = test system: NCI-H2126
Method in brief: as §1

[7] = test system: NCI-H2170
Method in brief: as §1

[8] = test system: NCI-H650
Method in brief: as §1

[9] = test system: RERF-LC-KJ
Method in brief: as §1

[10] = test system: SK-MES-1
Method in brief: as §1

[11] = test system: UMC-11
Method in brief: as §1

## CCNC(=O)c1noc(-c2cc(C(C)C)c(O)cc2O)c1-c1ccc(CN2CCOCC2)cc1 [Luminespib] + CS(=O)(=O)N1CCN(Cc2cc3nc(-c4cccc5[nH]ncc45)nc(N4CCOCC4)c3s2)CC1 [Pictilisib] (partner 1 µM)
[1]; first compound 0.006325 µM
  relative viability: 0.809
[1]; first compound 0.02 µM
  relative viability: 0.714
[1]; first compound 0.06325 µM
  relative viability: 0.121
[1]; first compound 0.2 µM
  relative viability: 0.087
[2]; first compound 0.002 µM
  relative viability: 0.684
[2]; first compound 0.006325 µM
  relative viability: 0.725
[2]; first compound 0.02 µM
  relative viability: 0.429
[2]; first compound 0.06325 µM
  relative viability: 0.326
[2]; first compound 0.2 µM
  relative viability: 0.377
[3]; first compound 0.002 µM
  relative viability: 0.721
[3]; first compound 0.006325 µM
  relative viability: 0.605
[3]; first compound 0.02 µM
  relative viability: 0.616
[3]; first compound 0.06325 µM
  relative viability: 0.525
[3]; first compound 0.2 µM
  relative viability: 0.551
[4]; first compound 0.002 µM
  relative viability: 0.85
[4]; first compound 0.006325 µM
  relative viability: 0.836
[4]; first compound 0.02 µM
  relative viability: 0.744
[4]; first compound 0.06325 µM
  relative viability: 0.787
[4]; first compound 0.2 µM
  relative viability: 0.643
[5]; first compound 0.002 µM
  relative viability: 0.908
[5]; first compound 0.006325 µM
  relative viability: 0.776
[5]; first compound 0.02 µM
  relative viability: 0.663
[5]; first compound 0.06325 µM
  relative viability: 0.2
[5]; first compound 0.2 µM
  relative viability: 0.157
[6]; first compound 0.002 µM
  relative viability: 0.464
[6]; first compound 0.006325 µM
  relative viability: 0.503
[6]; first compound 0.02 µM
  relative viability: 0.399
[6]; first compound 0.06325 µM
  relative viability: 0.49
[6]; first compound 0.2 µM
  relative viability: 0.273
[7]; first compound 0.002 µM
  relative viability: 0.304
[7]; first compound 0.006325 µM
  relative viability: 0.313
[7]; first compound 0.02 µM
  relative viability: 0.223
[7]; first compound 0.06325 µM
  relative viability: 0.165
[7]; first compound 0.2 µM
  relative viability: 0.155
[8]; first compound 0.002 µM
  relative viability: 1.09
[8]; first compound 0.006325 µM
  relative viability: 0.851
[8]; first compound 0.02 µM
  relative viability: 0.477
[8]; first compound 0.06325 µM
  relative viability: 0.209
[8]; first compound 0.2 µM
  relative viability: 0.127
[9]; first compound 0.002 µM
  relative viability: 0.665
[9]; first compound 0.006325 µM
  relative viability: 0.636
[9]; first compound 0.02 µM
  relative viability: 0.375
[9]; first compound 0.06325 µM
  relative viability: 0.231
[9]; first compound 0.2 µM
  relative viability: 0.182
[10]; first compound 0.002 µM
  relative viability: 0.36
[10]; first compound 0.006325 µM
  relative viability: 0.418
[10]; first compound 0.02 µM
  relative viability: 0.271
[10]; first compound 0.06325 µM
  relative viability: 0.114
[10]; first compound 0.2 µM
  relative viability: 0.106
[11]; first compound 0.002 µM
  relative viability: 0.43
[11]; first compound 0.006325 µM
  relative viability: 0.764
[11]; first compound 0.02 µM
  relative viability: 0.261
[11]; first compound 0.06325 µM
  relative viability: 0.603
[11]; first compound 0.2 µM
  relative viability: 0.185
